Source: BigSolDB 2.1

## Cn1cc[n+](CCC[n+]2ccn(C)c2)c1.F[P-](F)(F)(F)(F)F.F[P-](F)(F)(F)(F)F
In 2-butanone, 290.15 K
  solubility (mole fraction): 0.00292
In 2-butanone, 294.15 K
  solubility (mole fraction): 0.00339
In 2-butanone, 299.35 K
  solubility (mole fraction): 0.00404
In 2-butanone, 303.15 K
  solubility (mole fraction): 0.00458
In 2-butanone, 308.15 K
  solubility (mole fraction): 0.00524
In 2-butanone, 313.25 K
  solubility (mole fraction): 0.00598
In 2-butanone, 318.15 K
  solubility (mole fraction): 0.00671
In 2-butanone, 323.15 K
  solubility (mole fraction): 0.00738
In 2-butanone, 328.15 K
  solubility (mole fraction): 0.00811
In 2-butanone, 335.25 K
  solubility (mole fraction): 0.00913
In acetone, 289.15 K
  solubility (mole fraction): 0.0365
In acetone, 293.15 K
  solubility (mole fraction): 0.0401
In acetone, 296.65 K
  solubility (mole fraction): 0.0433
In acetone, 301.15 K
  solubility (mole fraction): 0.0485
In acetone, 306.15 K
  solubility (mole fraction): 0.0551
In acetone, 310.15 K
  solubility (mole fraction): 0.0605
In acetone, 315.15 K
  solubility (mole fraction): 0.0681
In acetone, 321.15 K
  solubility (mole fraction): 0.0772
In acetophenone, 289.15 K
  solubility (mole fraction): 0.000417
In acetophenone, 293.15 K
  solubility (mole fraction): 0.000461
In acetophenone, 296.65 K
  solubility (mole fraction): 0.0005
In acetophenone, 302.15 K
  solubility (mole fraction): 0.00056
In acetophenone, 307.15 K
  solubility (mole fraction): 0.000619
In acetophenone, 312.15 K
  solubility (mole fraction): 0.000683
In acetophenone, 317.35 K
  solubility (mole fraction): 0.000743
In acetophenone, 321.65 K
  solubility (mole fraction): 0.000807
In acetophenone, 328.15 K
  solubility (mole fraction): 0.000899
In acetophenone, 333.15 K
  solubility (mole fraction): 0.000996
In acetylacetone, 288.55 K
  solubility (mole fraction): 0.000598
In acetylacetone, 293.15 K
  solubility (mole fraction): 0.000876
In acetylacetone, 297.45 K
  solubility (mole fraction): 0.0012
In acetylacetone, 302.65 K
  solubility (mole fraction): 0.00172
In acetylacetone, 307.85 K
  solubility (mole fraction): 0.00241
In acetylacetone, 313.15 K
  solubility (mole fraction): 0.00325
In acetylacetone, 317.65 K
  solubility (mole fraction): 0.00411
In acetylacetone, 323.15 K
  solubility (mole fraction): 0.00532
In acetylacetone, 327.35 K
  solubility (mole fraction): 0.00639
In acetylacetone, 334.65 K
  solubility (mole fraction): 0.0084
In cyclohexanone, 289.65 K
  solubility (mole fraction): 0.000151
In cyclohexanone, 294.15 K
  solubility (mole fraction): 0.000222
In cyclohexanone, 299.15 K
  solubility (mole fraction): 0.000331
In cyclohexanone, 303.15 K
  solubility (mole fraction): 0.000443
In cyclohexanone, 308.15 K
  solubility (mole fraction): 0.000622
In cyclohexanone, 313.25 K
  solubility (mole fraction): 0.000852
In cyclohexanone, 318.15 K
  solubility (mole fraction): 0.00112
In cyclohexanone, 323.15 K
  solubility (mole fraction): 0.00143
In cyclohexanone, 328.15 K
  solubility (mole fraction): 0.00181
In cyclohexanone, 333.15 K
  solubility (mole fraction): 0.00224
In water, 289.15 K
  solubility (mole fraction): 7.7e-05
In water, 293.15 K
  solubility (mole fraction): 0.000102
In water, 297.65 K
  solubility (mole fraction): 0.000137
In water, 304.75 K
  solubility (mole fraction): 0.000216
In water, 309.35 K
  solubility (mole fraction): 0.000289
In water, 313.25 K
  solubility (mole fraction): 0.000366
In water, 317.15 K
  solubility (mole fraction): 0.000454
In water, 322.65 K
  solubility (mole fraction): 0.000611
In water, 327.15 K
  solubility (mole fraction): 0.00078
In water, 332.65 K
  solubility (mole fraction): 0.00104
